Data: patent US10925923B2, “Peptide having anti-inflammatory activity, and use thereof” (CAREGEN CO., LTD., priority 2016, dated 2021)
Where no end group is shown, it is not given here.

Legend:
TNF-α [1] = test: TNF-α RT-PCR in LPS-stimulated splenocytes; assay type: cell-based, mice; details: mouse splenocytes, LPS stimulator, peptide 0.2, 2, 20 ug/ml
Description: [The procedure below names another target; the source lists this target under the same test.] After 6-7-week-old mice were sacrificed to obtain spleen, the spleen was crushed using a cell filter, and centrifuged with serum-free RPMI 1640 medium. The upper layer was discarded, and for removal of red blood cells (RBC), RBC lysis buffer was used.
RBC was removed twice, followed by washing with serum-free RPMI1640 medium, and then an appropriate amount of serum-free RPMI1640 medium was added.
The cells were counted, and seeded in 96-well plate (1×10^6 cells/well) and 24-well plate (1×10^7 cells/dish). The next day, the cells were treated with respective peptide samples (0.2, 2, 20 ug/ml) and the stimulator LPS. Here, the experiment was performed by adjusting the time point.
Total RNA was extracted using Easy Blue (Intron). For synthesis of single-stranded DNA from RNA, RT premix (Intron) was used, and 3 ug of RNA, 2 ug of random hexamer, and DEPC-treated water were added thereto to reach a total volume of 20 ul, followed by reaction for 5 minutes at 65° C. and 1 hour at 42° C. Heating was again conducted at 95° C. for 5 minutes to prepare cDNA.
PCR was conducted by mixing 3 ul of cDNA and 10 pmole primers specific to CGI 58 gene with PCR premix (Intron). PCR conditions were: 94° C. for 30 seconds, 55-56° C. for 30 seconds, and 72° C. for 30 seconds. Genes were analyzed in the conditions in which the PCR results could be exponentially amplified. 5 ul of PCR product was obtained, electrophoresed on 1% agarose gel, and stained with ethidium bromide.

IL-2 = IL-2 RT-PCR in LPS-stimulated splenocytes; assay type: cell-based, mice; details: mouse splenocytes, LPS stimulator, peptide 0.2, 2, 20 ug/ml
COX2 = test: Western blot of COX2 in splenocytes; assay type: cell-based, mice; details: peptide 0.2-20 ug/ml, 24 hours
Description: The splenocytes obtained in example 1 were seeded in 24-well plate at cell density of 1×10^7 cells/well. Then, after incubation overnight, the cells were treated with the peptides of SEQ ID NO: 1, SEQ ID NO: 2 and SEQ ID NO: 3 with different concentrations (0.2-20 ug/ml), followed by incubation in an incubator at 37° C. for 24 hours, and then the cells were treated with cell lysis buffer to secure lysate, followed by protein quantification. Then, western blotting with respect to the inflammation inducing factor COX2 was conducted, and the results are shown in FIGS. 2a to 2f.

TNF-α [2] = test: ELISA (splenocytes), TNF-α secretion; assay type: cell-based, mice; details: LPS stimulator, 48 hours
Description: (§1) The splenocytes treated with the peptide samples and the stimulator LPS in example 1 were incubated for 48 hours, and then the culture media were collected. The obtained media were subjected to an experiment using an ELISA kit (R&D system) for cytokines (TNF-α and INF-γ) to be investigated.

INF-γ = test: ELISA (splenocytes), INF-γ secretion; assay type: cell-based, mice; details: LPS stimulator, 48 hours
Description: as §1

TNF-α [3] = test: ELISA (Raw264.7 cells), TNF-α secretion; assay type: cell-based; details: pre-treated at 0.2, 2, 20 ug/ml, then LPS, 24 hours
Description: Raw264.7 cells were seeded at 1×10^6 cells/48-well, and incubated overnight. The cells were pre-treated with samples to be investigated at 0.2, 2, and 20 ug/ml, and after 30 minutes, the cells were treated with LPS. Incubation was conducted at the scheduled time point. After 24 hours, the culture media were collected, and the obtained media were subjected to an experiment using an ELISA kit (R&D system) for cytokine (TNF-α) to be investigated.

Raw264.7 cells = test: FACS intracellular ROS assay (DCF-DA); assay type: cell-based; details: pre-treated at 1, 10, 50 ug/ml, then LPS
Description: Raw264.7 cells were seeded at 1×10^6 cells/6-well, and incubated overnight. The cells were pre-treated with samples to be investigated at 1, 10, and 50 ug/ml, and after 30 minutes, the cells were treated with LPS. The cells were incubated according to the scheduled time point, and then 30 minutes after the treatment with DCF-DH, the oxidation activity was measured by the degree of fluorescence using FACS.

CD3+ and CD25+ cells = test: Activation T cell analysis (FACS), CD3 and CD25 markers; assay type: cell-based, mice; details: splenocytes, LPS stimulator, 24 hours
Description: The cells were treated with the peptide samples and the stimulator LPS as described in example 1, and after 24 hours, the cells were treated with antibody (CD3 and CD25) activation T cell markers for 30 minutes, followed by washing twice with PBS, and then FACS was conducted.

| Substance | expression of TNF-α (RT-PCR) (TNF-α [1]) | expression of IL-2 (RT-PCR) (IL-2) | expression of COX2 (western blot) (COX2) | secretion of TNF-α in splenocytes (ELISA) (TNF-α [2]) | secretion of INF-γ in splenocytes (ELISA) (INF-γ) | secretion of TNF-α in RAW264.7 cells (ELISA) (TNF-α [3]) | ROS production (Raw264.7 cells) | CD3+ and CD25+ cells (FACS) (CD3+ and CD25+ cells) |
| --- | --- | --- | --- | --- | --- | --- | --- | --- |
| Asp-Asn-Cys-Leu-Arg (DNCLR) [SEQ ID NO: 2] | tend to decrease | tend to decrease | reduced | decreased | decreased | tended to decrease | reduced | decreased |
| GVQHQASPY [SEQ ID NO: 3] | tend to decrease | tend to decrease | reduced | – | – | decreased | reduced | decreased |
| Thr-Met-Arg-Asp (TMRD) [SEQ ID NO: 1] | tend to decrease | tend to decrease | reduced | decreased | decreased | tended to decrease | reduced | decreased |
